Reference: patent publication US4137380A, “Polyester granules and process” (priority 1972, dated 1979)
Read-outs that look alike come from different tables or passages of the source.

How the values were obtained:
[1] = Relative water solubility of amine; conditions: amine base
[2] = Dissociation constant in water (pKa value) of amine; format: physicochemical
Description: If more than one type of amine group is present in the molecule then the relevant pKa value is that of the most basic amine group.

[3] = amine base, in water, read-out: pKa

Row | pKa ([2]; water) | Compound | Rel. W. Sol [1] | pKa [2, 3]
1 | – | CCN [ethylamine] | high | –
2 | 11.8 | NCCCCCCCCCCCCN [dodecylene diamine] | insoluble | –
3 | 5.4 | vinyl pyridine | – | –
4 | – | C=C(C)C(=O)OCCN(C)C [DMAEMA, dimethylaminoethylmethacrylate] | high | 5.4
5 | – | NCCN [ethylene diamine] | high | –
6 | – | Nc1ccccc1 [aniline] | insoluble | –
7 | – | Cc1ccccc1N [o-toluidine] | insoluble | 6
